# PubChem BioAssay AID540258 (Broad Institute, 2011)
# Calls of active or inactive are those of the source.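 How the source made its calls: active means fitted curve reaching 40% activation at or below the top valid dose tested; inconclusive means flat curve at 30 to 70% activation, or poor fit; inactive means the rest.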
# System: SK-MEL-5 TRPM1 promoter luciferase reporter, 24 h
# Assay: MITF activators via TRPM1 promoter reporter, dose response, SK-MEL-5 cells, luciferase, cherry-pick samples (AID 540258);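 further: potency for activators that raise TRPM1 promoter luciferase signal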
row,SMILES,AC40
1,c1cnc(Nc2nc(-c3ccc4ccccc4c3)cs2)nc1,0.516 µM
2,c1ccc(-c2ccc3sccc3n2)cc1,1.52 µM
3,O=C(Nc1cccc(F)c1)NC1CCCCCCC1,6.52 µM
4,O=C(N/N=C/c1ccccc1C(F)(F)F)c1ccc(O)cc1,3.44 µM
5,CCN(CC)C(=O)OCc1c(-c2ccccc2)ncc2ccccc12,11.9 µM
6,CCc1ccc(-c2cn3nc(-c4ccccc4)cnc3n2)cc1,> 35 µM (inactive)
7,O=C(Oc1ccc2ccccc2c1Cl)N1CCCCCC1,0.557 µM
8,O=C(NC1=NCCS1)c1ccc(Cl)s1,2.64 µM
9,O=C(c1cc(COc2ccc(F)cc2Cl)on1)N1CCCCCC1,1.67 µM
10,CC(=O)c1ccc(Nc2ccc(-c3ccccc3C)nn2)cc1,4.2 µM
11,CC1(C)CC(/C=C/c2ccccc2)=Nc2ccccc2N1,20.9 µM
12,NC(=O)c1cnn(-c2cc(Oc3ccccc3)ncn2)c1N,2.88 µM
13,O=C(Nc1ccc(C(F)(F)F)cc1)c1ccccc1,3.48 µM
14,CN(CCC#N)C(=O)c1cc2c(s1)-c1ccccc1SC2,3.23 µM
15,Cc1ccc(-c2nn(-c3ccccc3)cc2/C=N/O)cc1,10.2 µM
16,CCCN1C(=O)C(=O)N(CC(=O)c2cc(C)n(C3CC3)c2C)C1=O,24.8 µM
17,Cc1ccc(Nc2nc(Cl)nc(NC(C)(C)C)n2)cc1,3.69 µM
18,O=C(NCCC1=CCCCC1)c1ccc(-n2cncn2)cc1,5.08 µM
19,COc1ccc(OC)c(/C=N/N(C)c2ccccc2)c1,1.44 µM
20,c1ccc(-c2nc3ccccc3[nH]2)cc1,1.81 µM
21,O=C(N/C=C/c1ccccc1)c1ccccc1,0.551 µM
22,O=C(N=C1N=C2C=CC=CN2Cc2ccccc21)c1ccc(S(=O)(=O)N2CCCC2)cc1,30.1 µM

row,SMILES,AC40
1,Nc1ccc(-c2nnc(-c3ccc(N)cc3)o2)cc1,2.45 µM
2,Cc1snc2sc(C(=O)c3ccc(Br)cc3)c(N)c12,1.48 µM
3,Cc1ccc(C2=NN(S(C)(=O)=O)C(c3cccs3)C2)cc1 (configuration not stated),2.09 µM
4,COC(=O)c1ccc(N2CCN(c3ccccc3)CC2)nc1,3.85 µM
5,COC(=O)c1cc(-c2ccc(OC)cc2)n[nH]1,6.21 µM
6,COc1ccc(NC(=S)c2ccccc2)cc1,3.97 µM
7,Cc1ccc(C(=O)NCCc2ccc(F)cc2)s1,0.245 µM
8,CCCN(Cc1ccc(C)cc1)C(=O)c1ccc(CNS(=O)(=O)c2ccc(C(C)=O)cc2)cc1,> 35 µM (inactive)
9,COc1ccccc1NC(=O)Nc1ccc(C(=O)N2CCCCC2)cc1,16.6 µM
10,Cc1cccc(Nc2nc3c(s2)CCCC3)c1,0.993 µM
11,Cc1cc(CNC(=O)c2cc(COc3ccc(F)c(F)c3)on2)nn1C,3.37 µM
12,CC(C)(C)C(=O)OCc1nc(-c2ccc(F)cc2)cs1,11.3 µM
13,O=C(NCCc1cccs1)c1ccc(Cl)c(Cl)c1,3.47 µM
14,Cc1nn2c(-c3ccccc3)ccnc2c1-c1ccccc1,4.34 µM
15,O=C(NCCc1c[nH]c2ccccc12)c1cc(Cl)c2c(c1)OCO2,17 µM
16,C=CCn1cnc2c(nnn2-c2ccc(C)c(C)c2)c1=O,11.9 µM
17,Clc1ccccc1/C=C/c1nc(-c2cccnc2)no1,1.2 µM
18,CCN1CCN(c2cc3c(nn2)Oc2ccccc2N3C)CC1,5.84 µM
19,COc1cccc(C2Nc3ccccc3C(=O)N2c2ccc(F)cc2)c1O (configuration not stated),23.8 µM
20,Cc1ccc(NC(=O)Nc2ccc3c(c2)N(C)C(=O)CS3)nc1,6.65 µM
21,COc1ccc(-c2c(C)nc3c(-c4ccsc4)cnn3c2N)cc1,0.302 µM
22,CCC(C)NC(=O)c1cc(-c2ccc(OC)cc2)on1 (configuration not stated),0.773 µM

row,SMILES,AC40
1,O=C1c2ccccc2/C(=C\C#Cc2ccccn2)N1c1ccccc1,3.93 µM
2,COc1ccccc1C(=O)NCC(=O)Nc1ccc2c(c1)CCC2,2.42 µM
3,CCc1nc2oc3ccccc3c(=O)c2cc1C(=O)OC,5.7 µM
4,Clc1ccc(SCc2cn3ccccc3n2)cc1,2.69 µM
5,Cc1cnc(NC(=O)Nc2ccc(Cl)cc2)s1,1.38 µM
6,N#Cc1cc(C#N)c(N2CCN(c3ccccn3)CC2)nc1N,4.47 µM
7,COc1ccc2nc3ccccc3nc2c1,4.11 µM
8,COc1ccc(N=C(C)c2sc3ccccc3c2O)cc1,1.82 µM
9,c1ccc(-n2ncc3c(NCc4cccs4)ncnc32)cc1,2.66 µM
10,Cc1ccc(-c2csc(C(C#N)=C3CCCC3)n2)cc1,2.84 µM
11,CCCC(=O)c1ccc(N2CCCCCC2)c(F)c1,3.36 µM
12,Clc1ccc(-c2nnc(CCc3ccccc3)o2)c(Cl)c1,2.55 µM
13,Cc1ccc(C)c(NC(=O)c2cc(-c3cc(C)ccc3O)n[nH]2)c1,3.03 µM
14,Cc1ccc2c(Cl)c(C(=O)Nc3cccnc3)sc2c1,1.19 µM
15,O=C(Nc1ccc(Cl)c(Cl)c1)Nc1ccccc1O,0.982 µM
16,COc1ccc2c(c1)CCc1c(C(=O)NCC(C)C)noc1-2,0.867 µM
17,COc1ccc2[nH]c(-c3ccccc3)cc2c1,0.977 µM
18,CN1C(=O)NC(=O)C(C)(C2=CCCCC2)C1=O (configuration not stated),> 35 µM (inactive)
19,c1ccc(C2=NN(c3ccccc3)CC2)cc1,1.69 µM
20,O=C(Cc1ccccc1F)Nc1ccc(SC(F)F)cc1,1.98 µM
21,Cn1cccc1C(=O)C(=O)Nc1ccc(F)c(F)c1,0.855 µM
22,CN(c1ccccc1)c1nc2ccsc2c(=O)s1,5.15 µM

row,SMILES,AC40
1,COc1cc2sc3cc(NCC[C@@H]4CCCN4C)ccc3c(=O)c2cc1OC,5.18 µM
2,Cn1c(NC(=O)CCC2CCCCC2)cc(=O)n(C)c1=O,1.49 µM
3,CC1(C)CC(=O)c2c(O)cc(OCc3ccc(Br)cc3)cc2O1,1.33 µM
4,Cn1cc(Br)c(C(=O)N/N=C/c2cc3c(cc2Cl)OCO3)n1,9.65 µM
5,CC(=O)c1sc(N/N=C/c2cccc(O)c2)nc1C,2.67 µM
6,O=C(NCCSc1ccccn1)c1ccc(Cl)cc1Cl,0.959 µM
7,Cc1csc2nc(CSc3nc4ccccc4o3)c(Br)n12,1.35 µM
8,N#Cc1ccc(NC(=O)c2cccs2)nc1,16.8 µM
9,Cc1ccc(CNc2nc(C)cs2)cc1,1.05 µM
10,CSCc1ccc(C(=O)Nc2cc(C)cc(C)c2)cc1,2.81 µM
11,COc1cccc(C(=O)Nc2ccc(NC(=O)C3CC3)cn2)c1,3.48 µM
12,O=C(Cc1cccs1)NCc1ccc(Cl)cc1Cl,5.59 µM
13,Cc1ccc(C(=O)Nc2ncccc2S(=O)(=O)c2ccccc2)cc1,2.94 µM
14,CN(/N=C/c1ccc2c(c1)OCO2)c1ccccc1,1.34 µM
15,Brc1csc(/C=N/Nc2nc3ccccc3s2)c1,0.667 µM
16,c1cnc2nc(-c3ccc4c(c3)OCO4)cn2c1,13.7 µM
17,COCc1nn2c(N)c(-c3ccccc3)cnc2c1-c1ccccc1,2.62 µM
18,Oc1oc(-c2ccccc2)nc1C=NCc1ccccc1,11.3 µM
19,COc1ccc(C(=O)c2c[nH]c3ccccc23)cc1,2.64 µM
20,Cc1cccc(NC(=O)c2onc3c2CCCC3)c1C,1.62 µM
21,Cc1ccnc(NC(=O)c2ccc(S(=O)(=O)N3CCC(C)CC3)cc2)c1,7.76 µM
22,COc1ccc(/C=C2\CCn3c2nc2ccccc2c3=O)cc1OC,0.899 µM

row,SMILES,AC40
1,CC(=O)c1cccc(NC(=O)c2cc3nc(C)cc(C)n3n2)c1,2.7 µM
2,COc1cc(/C=N/O)ccc1OCc1ccccc1Cl,0.744 µM
3,Cc1ccc2cc(NC(=O)c3ccccc3C)ccc2n1,1.69 µM
4,CCCCNc1ccc2c(c1)C1CC2CCN1C(=O)OCc1ccccc1 (configuration not stated),3.32 µM
5,CC(C)(C)C(=O)c1cnc(Nc2ccccc2Cl)s1,0.832 µM
6,Clc1ccc(-c2nc(C3CCCCC3)no2)cc1,1.23 µM
7,Cc1ccsc1CCNC(=O)C1CCC(=O)N(CCc2cccc(F)c2)C1 (configuration not stated),6.83 µM
8,CC1CCN(c2ccc3c(c2)S(=O)(=O)c2ccccc2C3=O)CC1,0.442 µM
9,O=C(NCc1ccc2c(c1)OCO2)Nc1cccc(Cl)c1,8.57 µM
10,O=c1c(-c2ccc(O)cc2)coc2cc(O)cc(O)c12,4.48 µM
11,O=C(c1nnc(-c2ccc(Cl)cc2)o1)C1CCCC1,10.3 µM
12,CCCC(=O)Nc1ccc(C#Cc2ccccc2)cc1,1.63 µM
13,COc1ccc2cc(-c3csc(-c4cccnc4)n3)ccc2c1,2.09 µM
14,Cc1ccc(NC(=O)Nc2ccc3c(c2)OCO3)c(OC(F)F)c1,2.14 µM
15,CC(=O)c1ccc2oc3ccccc3c(=O)c2c1,10.1 µM
16,Cc1ccccc1Nc1nc(N)nc(COC(=O)c2ccccc2)n1,7.87 µM
17,CCCCc1nc2cc(C(=O)N3CCN(c4nc(C)cnc4C)CC3)ccc2o1,> 35 µM (inactive)
18,CN(C)c1ccc(/C=C/c2cccc[n+]2[O-])cc1,14.3 µM
19,Cc1ccc(CSc2ccc(-c3cccs3)nn2)cc1,2.71 µM
20,Cc1ccc(/C=N/Nc2ccc(Cl)nn2)cc1,1.93 µM
21,Cc1nc2ccccc2nc(=O)c1NNc1ccccc1,3.99 µM
22,CC(C)C(=O)Nc1cccc(-c2cnc3ccccc3n2)c1,17.3 µM

row,SMILES,AC40
1,O=C(Nc1ccc2c(c1)CCC2)C1CCCN(c2ncccn2)C1 (configuration not stated),3.54 µM
2,CCCN(CCC)c1ncnc2c1cnn2-c1ccc(OC)cc1,0.256 µM
3,CC(C)c1ccc2nc(N)sc2c1,> 35 µM (inactive)
4,O=C(N/N=C/c1ccccn1)c1c[nH]c2ccccc12,6.49 µM
5,CNC(=O)C(=O)Nc1nc(C23CC4CC(CC(C4)C2)C3)cs1,16.6 µM
6,COc1ccc2oc(=O)c(C(=O)N3CCN(c4ccccc4C)CC3)cc2c1,8.14 µM
7,Cc1nc(-c2ccc(NC(=O)c3ccccc3Br)cc2)cs1,1.57 µM
8,COc1c(C)cccc1C(=O)Nc1ccc(N2CCN(S(C)(=O)=O)CC2)cc1,4.98 µM
9,Cn1cccc1C(=O)N/N=C/c1c(Cl)cccc1Cl,1.47 µM
10,COc1ccc(/C=C/c2nc3ccccc3n2Cc2ccc(OC)c(OC)c2)cc1,1.93 µM
11,C1=C(c2cc3ccccc3cn2)CCCC1,1.08 µM
12,O=C(c1noc2c1CCCC2)N1CCc2ccccc2C1,5.97 µM
13,C=CCc1c(C)nc(-c2ccccc2)nc1N/N=C/c1ccncc1,7.06 µM
14,CCc1ccc(O)c(-c2cc(C(=O)Nc3cccnc3)[nH]n2)c1,2.44 µM
15,CCCCN(C(=O)Cc1cccs1)c1nnc(-c2cccnc2)s1,5.05 µM
16,CCCCCc1ccc(-c2ccc(OC)cc2)nc1,1.38 µM
17,CN(C)c1ccc(CSc2ccccc2)cc1,1.83 µM
18,COc1ccc(-c2nnc(SCc3ccccc3)n2N)cc1,5.97 µM
19,O=c1nc(/C=C/c2ccc(O)c(O)c2)oc2ccccc12,6.32 µM
20,c1ccc2c(Nc3nnc(-c4ccncc4)s3)cccc2c1,4.9 µM
21,Nc1ccc(CSc2ccc(Cl)cc2)c(Cl)c1,1.98 µM
22,COc1ccc(C(=O)CN2Cc3ccccc3C2=N)cc1,4.86 µM
